Test results published in patent publication US20040157930A1, “Histone deacetylase enzyme-inhibiting derivatives of hydroxamic acid as new cytokine synthesis-inhibiting anti-inflammatory drugs” (priority 2001, published 2004).

System: IL-12 (p70)
Assay: Inhibition of IL-12 production by cultured monocytes (ELISA)
Assay type: cell-based
Conditions: nonadherent human monocytes
Method: Venous blood was obtained from consenting adults and separated over Ficoll-Hypaque. The PBMC fraction was washed and adjusted to five million cells per ml. […] The cells were stimulated with LPS, soluble OKT3, or cytokines, and after 24 or 48 h At 37° C. the supernatant was removed and frozen for cytokine assays. Monocytes were isolated by centrifugation over Percoll, washed, suspended in RPMI with 10% FCS, and aliquoted at 2 million cells per ml in Petriperm Teflon-coated culture dishes (Sigma). The ELISA for human IL-12 (p70) was purchased from Endogen (Woburn, Mass.).

For `O=C(CCCCCCC(=O)Nc1ccccc1)NO` [SAHA, suberoylanilide hydroxamic acid], the “reduction in LPS/IFN-γ-induced IL-12 production” value (200 nM) was 55% and the “reduction in LPS/IFN-γ-induced IL-12 production” value (400 nM) was 86%.
